“Also recorded” adds a separate entry of the source.
Key:
[1] = test system: primary PDAC tumors of transgenic KPC mice; test: Long-term treatment of transgenic KPC mice; IHC/IF of primary PDAC tumors; type: in vivo, mouse; settings: per high-power field
Procedure: Long-term treatment studies using combinations of iRGD, Gem, and Nab-P in transgenic KPC mice and subsequent immunohistochemistry (IHC) were performed as previously reported.
For the data presented in FIG. 1, primary PDAC tumors were collected from transgenic KPC mice that received long-term treatment with Gem, iRGD, or iRGD+Gem as part of a previously published survival study. The primary PDAC tumors were immunohistochemically analyzed for the presence of CD8+ T cells.
Primary PDAC tumors were collected from transgenic KPC mice that received long-term treatment with or without Gem, iRGD, or iRGD+Gem as part of a previously published survival study. The presence of Foxp3+ Tregs in the primary PDAC tumors was analyzed by immunofluorescence.

[2] = test system: orthotopic KPC-derived PDAC tumors; test: Treatment study in orthotopic syngeneic KPC-derived PDAC mice: tumor weight; type: in vivo, mouse; settings: 3 times a week for 2 weeks
Procedure: Syngeneic PDAC mice were generated by orthotopic pancreatic injections of 5.0×10^5 KPC-derived PDAC cells into 8- to 10-week-old C57B6129SF1/J hybrid mice (Jackson™), which are the offspring of a cross between C57BL/6J females and 129S1/SvImJ males. In some experiments, the tumor growth was measured by luminescence imaging.
The treatment studies in orthotopic syngeneic PDAC mice were performed as follows. Eight days after orthotopic implantation of 5.0×10^5 KPC-derived PDAC cells, the mice were randomized into respective treatment cohorts, such as intravenous (IV) phosphate buffered saline (PBS) alone, IV iRGD alone (300 μg/25 g), IV PBS+IP antimouse PD-L1 mAb (200 μg/mouse; clone MIH6; BioLegend™), IV iRGD+IP anti-mouse PD-L1 mAb, IV PBS+IV Gem (4 mg/kg; MilliporeSigma™), and IV iRGD+IV GEM+IP anti-mouse PD-L1 mAb. The treatment was given 3 times a week for 2 weeks starting 8 days after tumor cell implantation. The tumors and major organs were harvested at the end of the studies on day 22, weighed, and processed for flow cytometry, IF, and IHC. The treatment studies were terminated according to the guidelines by the IACUC at Columbia University. Treatment studies in transgenic KPC mice were performed as previously described.
C57B6129SF1/J hybrid mice bearing orthotopic KPC-derived PDAC tumors were treated with PBS or iRGD 3 times a week for 2 weeks. […]

[3] = test system: Tregs that were expanded in the presence of PDAC cells; test: FAM-iRGD binding to Tregs expanded with PDAC cells (flow cytometry); design: species or system mouse; settings: flow cytometry MFI
Procedure: The isolated immune cells were subjected to flow cytometry for quality check and to analyze the cell populations of interest. […] The binding was analyzed by flow cytometry.
CD4+ T cells were magnetically isolated from the spleens of healthy C57B6129SF1/J mice using a mouse CD4+ T cell isolation kit (Miltenyi Biotec™). The CD4+ T cells were cultured for 3 days with or without KPC-derived PDAC cells in the presence of low dose anti-CD3/CD28 beads (×40 dilution; Miltenyi Biotec™), TGF-β1 (5 ng/ml; Bio-Techne Corporation™), and recombinant mouse interleukin-2 (mIL-2, 100 U/ml; Roche™), and subjected to flow cytometry as described elsewhere. In some cases, 1.0 mM iRGD was added to the culture in binding buffer supplemented with mIL-2 to study the effect on apoptosis. The cells were then stained with FITC-conjugated annexin V (BioLegend™) and 7-AAD (BioLegend™) for 15 minutes at room temperature to detect apoptotic cells by flow cytometry.
For the data presented in FIG. 16 through FIG. 19, CD4+ T cells isolated from the spleen of healthy C57B6129SF1/J hybrid mice were expanded for 3 days in vitro in the presence of KPC-derived PDAC cells. Flow cytometry was performed for subsequent analyses. […] The bar diagram summarizes the median fluorescence intensity (MFI) from 4 independent experiments. […] Apoptosis was quantitated by measuring annexin V and 7-AAD double positive cells by flow cytometry (n=3).

Sequence: CRGDKGPDC [iRGD]
- number of CD8+ T cells in the PDAC tissue ([1]; IHC, long-term treatment): increased the number of CD8+ T cells
- PDAC-resident cells expressing Foxp3 (Foxp3+ Tregs) ([1]; immunofluorescence, compared to the other arms): less PDAC-resident cells expressing Foxp3
- tumor growth (tumor weight at end of study) [2]: did not inhibit tumor growth; also recorded: did not affect tumor growth
- binding to αvβ5 integrin+ Tregs induced in the presence of PDAC cells [3]: Binds
